Values after ≈ are worked out from the molar mass of the structure shown. Read-outs that look alike come from different tables or passages of the source.
How the values were obtained:
[1] = test system: Moraxella catarrhalis (ATCC 8176); assay: MIC by microbroth dilution, Moraxella catarrhalis ATCC 8176; type: cell-based; details: ATCC8176
Procedure: (§1) Shown below are the microbiological activities of representative compounds of Formula I of the invention. The compounds were tested by the microbroth dilution method (National committee for Clinical Laboratory Standards, 2011, […]-08) and the Minimum Inhibitory Concentration (MIC) was determined.

[2] = test system: Staphylococcus aureus (ATCC 29213); assay: MIC by microbroth dilution, Staphylococcus aureus ATCC 29213; type: cell-based; details: ATCC29213
Procedure: as §1

[3] = test system: K. pneumoniae (ATCC 700603); assay: MIC by microbroth dilution, K. pneumoniae ATCC 700603; type: cell-based; details: Klebsiella pneumoniae, ATCC700603, Formula I compounds
Procedure: (§2) Shown below are the microbiological activities of representative compounds of Formula I of the invention. The compounds were tested by the microbroth dilution method (National committee for Clinical Laboratory Standards, 2011, M07-08) and the Minimum Inhibitory Concentration (MIC) was determined.
(§3) Analysis of microbiological activity of compounds shown below are the microbiological activities of representative compounds of Formula II of the invention. The compounds were tested by the microbroth dilution method as per the reference in Example 1.

[4] = test system: Methicillin resistant Staphylococcus aureus (ATCC 33591); assay: MIC by microbroth dilution, MRSA ATCC 33591; type: cell-based
Procedure: as §2, §3

E. coli (ATCC 25922) = assay: MIC by microbroth dilution, E. coli ATCC 25922; type: cell-based; details: Escherichia coli
Procedure: as §2, §3

[5] = test system: Enterococcus faecalis (ATCC 29212); assay: MIC by microbroth dilution, Enterococcus faecalis ATCC 29212; type: cell-based; details: ATCC29212
Procedure: as §1

[6] = test system: Streptococcus pneumoniae (ATCC 6301); assay: MIC by microbroth dilution, Streptococcus pneumoniae ATCC 6301; type: cell-based; details: ATCC6301
Procedure: as §1

E. coli Gyrase = target: T1, E. coli Gyrase (Escherichia coli, UniProt P0AES4+P0AES6); assay: in vitro Gyrase supercoiling assay (Inspiralis kit); type: biochemical; details: 1 hour at 37° C., read-out: % inhibition of DNA supercoiling activity; for inhibition at 0.1 µM: 0.1 μM compound; for inhibition at 1 µM: 1 μM compound
T1 construct: purchased Inspiralis
Procedure: To test for target specificity, the activity of compounds was evaluated in an in vitro Gyrase assay using recombinant Gyrase protein as per the instructions of the assay kit (Inspiralis). The assay measures the ability of E. coli Gyrase to convert relaxed plasmid DNA into the supercoiled form. The enzyme is incubated with the substrate (relaxed DNA) in the presence and absence of compounds for 1 hour at 37° C. and the DNA is run on a gel at low voltage for several hours. The gel is then stained with Ethidium bromide and DNA in the different forms is quantified using DNA imaging and quantification software (Image Lab). The activity of the enzyme is proportional to the amount of supercoiled form detected.

E. faecalis ATCC 51299 = assay: MIC by microbroth dilution, E. faecalis ATCC 51299; type: cell-based; details: Enterococcus faecalis, ATCC51299, Formula II compounds, read-out: Minimum Inhibitory Concentration (MIC) E. faecalis ATCC 51299
Procedure: as §2, §3

[7] = target: T2, ciprofloxacin resistant recombinant Gyrase protein (with mutation S83L) (Escherichia coli, UniProt P0AES4+P0AES6, S83L); assay: Gyrase supercoiling assay with ciprofloxacin resistant Gyrase (S83L); type: biochemical; details: read-out: Target specificity: % inhibition of supercoiling activity
T2 construct: purchased Inspiralis
Procedure: The enzyme is incubated with the substrate (relaxed DNA) in the presence and absence of compounds for 1 hour at 37° C. and the DNA is run on a gel at low voltage for several hours. The amount of supercoiled DNA is quantified using DNA imaging and quantification software (Image Lab). The activity of the enzyme is proportional to the amount of supercoiled form detected.

[8] = ATCC33591, Formula I compounds, read-out: MIC Methicillin resistant Staphylococcus aureus (ATCC 33591)
[9] = ATCC25922, Formula I compounds, read-out: MIC E. coli (ATCC 25922)
[10] = Formula II compounds, read-out: Minimum Inhibitory Concentration (MIC) MRSA ATCC 33591
[11] = ATCC25922, Formula II compounds, read-out: Minimum Inhibitory Concentration (MIC) E. coli ATCC 25922

MIC [3]	MIC [4, 10]	MIC (E. faecalis ATCC 51299)	MIC (E. coli (ATCC 25922); [11])	Structure (SMILES)	MIC [1]	MIC [2]	MIC [4, 8]	MIC (E. coli (ATCC 25922); [9])	MIC [5]	MIC [6]	inhibition at 0.1 µM (E. coli Gyrase)	inhibition at 1 µM (E. coli Gyrase)	inhibition at 0.1 µM [7]	inhibition at 1 µM [7]
> 16 µg/mL	–	–	–	CCc1ccc(CNC2CCN(CCc3c(C#N)cnc4ccc(OC)cc34)CC2)cc1[N+](=O)[O-] [VT-03-00076]	0.25 µg/mL (≈ 0.528 µM)	0.015 µg/mL (≈ 0.0317 µM)	0.03 µg/mL (≈ 0.0633 µM)	2 µg/mL (≈ 4.22 µM)	0.25 µg/mL (≈ 0.528 µM)	0.03 µg/mL (≈ 0.0633 µM)	–	–	–	–
> 32 µg/mL	–	–	–	COc1ccc2ncc(C#N)c(N3CC(N4CCC(NCc5ccc6c(c5)OCCO6)CC4)C3)c2c1 [VT-03-00032]	8 µg/mL (≈ 16.5 µM)	2 µg/mL (≈ 4.12 µM)	4 µg/mL (≈ 8.24 µM)	> 32 µg/mL	8 µg/mL (≈ 16.5 µM)	4 µg/mL (≈ 8.24 µM)	–	–	–	–
–	–	–	–	COc1ccc2ncc(C#N)c(CCN3CCC(NCc4cc([N+](=O)[O-])ccn4)CC3)c2c1 [VT-03-00079]	4 µg/mL (≈ 8.96 µM)	2 µg/mL (≈ 4.48 µM)	2 µg/mL (≈ 4.48 µM)	32 µg/mL (≈ 71.7 µM)	32 µg/mL (≈ 71.7 µM)	2 µg/mL (≈ 4.48 µM)	16.7%	87.6%	–	–
> 32 µg/mL	–	–	–	COc1ccc2ncc(=O)n(CCN3CCC(NCc4ccc(F)c([N+](=O)[O-])c4)CC3)c2c1 [VT-03-00056]	1 µg/mL (≈ 2.2 µM)	0.25 µg/mL (≈ 0.549 µM)	0.5 µg/mL (≈ 1.1 µM)	4 µg/mL (≈ 8.78 µM)	8 µg/mL (≈ 17.6 µM)	0.25 µg/mL (≈ 0.549 µM)	–	–	–	–
–	0.25 µg/mL (≈ 0.522 µM)	2 µg/mL (≈ 4.18 µM)	8 µg/mL (≈ 16.7 µM)	CNC(=O)c1ccc2ncc(=O)n(CCN3CCC(NCc4ccc(C)c([N+](=O)[O-])c4)CC3)c2c1 [VT-03-00108]	–	–	–	–	–	–	–	–	–	–
–	0.06 µg/mL (≈ 0.139 µM)	0.5 µg/mL (≈ 1.16 µM)	1 µg/mL (≈ 2.32 µM)	Cc1ccc(CNC2CCN(CCN3C(=O)CNc4ccc(Cl)nc43)CC2)cc1F [VT-03-00107]	–	–	–	–	–	–	–	–	–	–
–	0.06 µg/mL (≈ 0.119 µM)	0.5 µg/mL (≈ 0.989 µM)	2 µg/mL (≈ 3.96 µM)	Cc1ccc(CNC2CCN(CCn3c(=O)cnc4ccc(OC(F)(F)F)cc43)CC2)cc1[N+](=O)[O-] [VT-03-00114]	–	–	–	–	–	–	–	–	–	–
> 32 µg/mL	–	–	–	COc1ccc2ncc(C#N)c(CCN3CCC(NCc4cccc([N+](=O)[O-])c4)CC3)c2c1 [VT-03-00049]	8 µg/mL (≈ 18 µM)	0.12 µg/mL (≈ 0.269 µM)	0.5 µg/mL (≈ 1.12 µM)	32 µg/mL (≈ 71.8 µM)	2 µg/mL (≈ 4.49 µM)	0.5 µg/mL (≈ 1.12 µM)	–	–	–	–
32 µg/mL (≈ 69 µM)	–	–	–	COc1ccc2ncc(C#N)c(CCN3CCC(NCc4ccc([N+](=O)[O-])c(F)c4)CC3)c2c1 [VT-03-00054]	1 µg/mL (≈ 2.16 µM)	0.03 µg/mL (≈ 0.0647 µM)	0.12 µg/mL (≈ 0.259 µM)	8 µg/mL (≈ 17.3 µM)	2 µg/mL (≈ 4.31 µM)	0.5 µg/mL (≈ 1.08 µM)	–	–	–	–
–	–	–	–	COc1ccc2ncc(C#N)c(CCN3CCC(NCc4ccc([N+](=O)[O-])cc4)CC3)c2c1 [VT-03-00045]	2 µg/mL (≈ 4.49 µM)	0.06 µg/mL (≈ 0.135 µM)	0.12 µg/mL (≈ 0.269 µM)	32 µg/mL (≈ 71.8 µM)	4 µg/mL (≈ 8.98 µM)	0.5 µg/mL (≈ 1.12 µM)	96.5%	96.5%	–	–

Structure (SMILES)	MIC [3]	MIC [4, 10]	MIC (E. faecalis ATCC 51299)	MIC (E. coli (ATCC 25922); [11])	MIC [1]	MIC [2]	MIC [4, 8]	MIC (E. coli (ATCC 25922); [9])	MIC [5]	MIC [6]	inhibition at 0.1 µM (E. coli Gyrase)	inhibition at 1 µM (E. coli Gyrase)	inhibition at 0.1 µM [7]	inhibition at 1 µM [7]
COc1ccc2ncc(C#N)c(CCN3C4CCC3CC(NS(=O)(=O)c3ccc5c(c3)OCCO5)C4)c2c1 (stereo not drawn) [VT-03-00021]	> 32 µg/mL	–	–	–	2 µg/mL (≈ 3.74 µM)	0.25 µg/mL (≈ 0.468 µM)	0.12 µg/mL (≈ 0.224 µM)	16 µg/mL (≈ 29.9 µM)	2 µg/mL (≈ 3.74 µM)	1 µg/mL (≈ 1.87 µM)	–	–	–	–
COc1ccc2ncc(=O)n(CCN3CCC(NCc4ccc(Br)c([N+](=O)[O-])c4)CC3)c2c1 [VT-03-00066]	> 32 µg/mL	–	–	–	4 µg/mL (≈ 7.75 µM)	0.5 µg/mL (≈ 0.968 µM)	1 µg/mL (≈ 1.94 µM)	16 µg/mL (≈ 31 µM)	4 µg/mL (≈ 7.75 µM)	1 µg/mL (≈ 1.94 µM)	55.9%	89.9%	–	–
Cc1ccc(CNC2CCN(CCn3c(=O)cnc4ccc(Br)cc43)CC2)cc1F [VT-03-00102]	–	≤ 0.0075 µg/mL	0.5 µg/mL (≈ 1.06 µM)	8 µg/mL (≈ 16.9 µM)	–	–	–	–	–	–	–	–	96.5%	95.3%
COc1ccc2ncc(C#N)c(CCN3CCC(NCc4ccc(N(C)C)c([N+](=O)[O-])c4)CC3)c2c1 [VT-03-00064]	> 32 µg/mL	–	–	–	0.25 µg/mL (≈ 0.512 µM)	0.12 µg/mL (≈ 0.246 µM)	0.25 µg/mL (≈ 0.512 µM)	4 µg/mL (≈ 8.19 µM)	2 µg/mL (≈ 4.09 µM)	0.12 µg/mL (≈ 0.246 µM)	89.3%	98.1%	–	–

Source: patent US20170197935A1, “INHIBITORS OF DNA GYRASE FOR THE TREATMENT OF BACTERIAL INFECTIONS” (Vitas Pharma Research Private Limited, priority 2012, published 2017)
